A short description of the series: Determination of stability of vitamin K2 microcapsules (light, oxygen, high temperature). Type of series: physicochemical. As to the method: (2) Test Method The samples and the reference samples were respectively put into sealed colorless and transparent vials, and placed under the conditions of 4500Lx light intensity irradiation, oxygen filling (25° C.), and stored at 60° C. (incubator) for 15 days, respectively; and they were subjected to sampling on Day 0, Day 5, Day 10, Day 15, and VK2 contents thereof were determined by USP method. The effects of light, oxygen, and temperature conditions on the labeled content (%) of VK2 were investigated.

Turning to Vitamin K2 [Reference sample 4], the “Labeled content of VK2 (%)” value runs as follows: (60° C. (incubator), Day 0) 100.0%; (60° C. (incubator), Day 5) 96.2%; (60° C. (incubator), Day 10) 94.8%; (60° C. (incubator), Day 15) 90.4%; (4500 Lx illumination, Day 0) 100.0%; (4500 Lx illumination, Day 5) 89.2%. The “Labeled content of VK2 (%)” value is listed as 74.3% (4500 Lx illumination, Day 10); 60.3% (4500 Lx illumination, Day 15); 100.0% (Oxygen filling (25° C.), Day 0); 93.5% (Oxygen filling (25° C.), Day 5); 89.4% (Oxygen filling (25° C.), Day 10); 81.2% (Oxygen filling (25° C.), Day 15).
